Consider seven compounds from PMC9958325 (Nature Communications, 2023).

As a reminder, the CC50 is the concentration that lowers cell viability or growth by half. In general, EC50 refers to the concentration that produces a half-maximal response. In general, IC50 refers to the point on the concentration scale where inhibition reaches its midpoint. Usually Cmax stands for the maximum level reached in the sampled fluid or tissue.

Molecules are shown by their SMILES. “And” between values parts separate entries of the source, which are not always exact repeats. Identical values can stand only once. Counter-ions that a name gives are not always drawn. Like-named read-outs stand apart in the source and are kept apart here. Marks after values point to notes of the source that are not given here. Peptide text beside a SMILES is read from it. * marks the point of attachment. Cbz = O=C(OCc1ccccc1)*; CH2F = FC*

In one data set the test system is HeLa-ACE2-TMPRSS2 cells. Nature of the data set: Intracellular concentrations of compounds (LC/MS), HeLa-ACE2-TMPRSS2 cells. Particulars: for intracellular compound, /1x10^6: calculated value per cell count; for intracellular compound, calculated value /20uL: from AUC against pmol standard curve.
The next data set has as its system VeroE6 cells. Briefly: Intracellular concentrations of compounds (LC/MS), VeroE6 cells. As to conditions: Vero, calculated value per cell count.
The nature of data set [1]: in vitro. Particulars: human, HeLa-ACE2-TMPRSS2 cells.
Data set [2] relates to SARS-CoV-2^WK521 in HeLa-ACE2-TMPRSS2 cells. Nature of the data set: Antiviral assay, HeLa-ACE2-TMPRSS2 cells, WK521. The data set is classed as cell-based.
A further data set concerns SARS-CoV-2^WK-521. Briefly: microbe, parasite or virus in culture. The data set is classed as cell-based. Details: EC95, individual assays / EC95, Average: unit: µM.
A short description of data set [3]: in vitro. As to conditions: African green monkey, VeroE6 cells.
Another data set concerns the target SARS-CoV-2 M^pro/3CL^pro (Severe acute respiratory syndrome coronavirus 2, UniProt P0DTD1). It is filed as biochemical. Also noted: IC95, individual assays / IC95, Average: unit: µM.
For data set [4] the following is noted: mouse, in vivo.
Data set [5] in a line: Pharmacokinetic study in ICR mice. Particulars: N = 2 to 3 male or female ICR mice; 5h, TKB125 i.v. 2 mg/kg.
The next data set concerns the target T1, human cathepsin L (Homo sapiens, UniProt P07711).
T1 construct: purchased abcam ab197012
Briefly: Human cathepsin L inhibitor screening assay. It is filed as biochemical. As to conditions: triplicate, listed as Cathepsin L inhibitor/FF-FMK.

Setting [6] is: Hela ACE2 TMPRSS2, drug 10, duplicates.
The mark [7] stands for this setting: Hela ACE2 TMPRSS2, drug 50, duplicates.
[8] abbreviates: Hela ACE2 TMPRSS2, drug 100, duplicates.
The mark [9] stands for this setting: Severe acute respiratory syndrome coronavirus 2, SARS-CoV-2^WK521, read-out: EC50, HeLa-ACE2-TMPRSS2.
The mark [10] stands for this setting: Severe acute respiratory syndrome coronavirus 2, read-out: EC50, HeLa-AEC2-TMPRSS2, individual assays, source data.
The mark [11] stands for this setting: Severe acute respiratory syndrome coronavirus 2, source data, read-out: EC50, HeLa-AEC2-TMPRSS2, Average.
The mark [12] stands for this setting: read-out: EC50, HeLa-AEC2-TMPRSS2, individual assays, source data.
Where [13] appears, read: Severe acute respiratory syndrome coronavirus 2, Vero C1008, read-out: SARS-CoV2 RNA VeroE6 cell-based assay EC50.
Setting [14] is: read-out: EC50, individual assays.
Setting [15] is: FRET, mean ± 1 S.D., read-out: SARS-CoV2 M^pro enzyme assay IC50.
The mark [16] stands for this setting: source data, M^pro enzyme assay.
[17] abbreviates: source data, M^pro enzyme assay, read-out: IC50, Average.
[18] abbreviates: read-out: SARS-CoV2 RNA VeroE6 cell-based assay EC50.

T1 sequence (P07711 114-333): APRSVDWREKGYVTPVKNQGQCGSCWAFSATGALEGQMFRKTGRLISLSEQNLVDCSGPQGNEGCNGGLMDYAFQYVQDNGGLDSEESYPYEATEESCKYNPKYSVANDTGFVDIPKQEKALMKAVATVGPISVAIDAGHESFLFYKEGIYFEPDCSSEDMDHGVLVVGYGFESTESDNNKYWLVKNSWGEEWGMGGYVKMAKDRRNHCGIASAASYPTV

Take `CC(C)(C)C(NC(=O)C(F)(F)F)C(=O)N1CC2C(C1C(=O)NC(CC1CCNC1=O)C(=O)c1nc3c(F)cccc3s1)C2(C)C` (stereo not shown) [TKB0245A]: the “intracellular compound, pmol(total)” value with HeLa-ACE2-TMPRSS2 cells (setting [6]) is 0.636 pmol and 0.5701 pmol; with HeLa-ACE2-TMPRSS2 cells (setting [7]), 4.585 pmol and 3.749 pmol; with HeLa-ACE2-TMPRSS2 cells (setting [8]) it was 8.312 pmol and 9.388 pmol. The “intracellular compound, /1x10^6” value in the data set with HeLa-ACE2-TMPRSS2 cells (setting [6]) is 0.2544 /1x10^6 and 0.228 /1x10^6; in the data set on HeLa-ACE2-TMPRSS2 cells (setting [7]), 1.834 /1x10^6 and 1.4997 /1x10^6; in the data set on HeLa-ACE2-TMPRSS2 cells (setting [8]), 3.325 /1x10^6 and 3.755 /1x10^6; in the data set with VeroE6 cells (drug 10, duplicates), 0.09213 /1x10^6 and 0.09745 /1x10^6; in the data set with VeroE6 cells (drug 100, duplicates) it was 0.9321 /1x10^6 and 0.7861 /1x10^6. Also, the “intracellular compound, calculated value /20uL” value is 0.59 /20uL and 0.50 /20uL in the data set with HeLa-ACE2-TMPRSS2 cells (setting [6]); 4.77 /20uL and 3.30 /20uL in the data set on HeLa-ACE2-TMPRSS2 cells (setting [7]); 6.65 /20uL and 9.39 /20uL in the data set with HeLa-ACE2-TMPRSS2 cells (setting [8]).
Regarding `CC(C)C(=O)OC[C@H]1O[C@@H](n2ccc(NO)nc2=O)[C@H](O)[C@@H]1O` [Molnupiravir], the CC50 at 3 days in “in vitro [1]” and in “in vitro [3]” was greater than 100000 nM each time. Further, the EC50 in data set [2] (setting [9]) is 320 ± 70 nM; in data set [2] (setting [10]), 270 nM; in data set [2] (setting [11]) it was 323 nM; in data set [2] (setting [12]) it was 300 nM and 400 nM; with SARS-CoV-2^WK-521 (Severe acute respiratory syndrome coronavirus 2, Vero C1008, read-out: EC50, individual assays), 270 nM; in the data set with SARS-CoV-2^WK-521 (setting [13]), 350 ± 60 nM. Further, in the data set with SARS-CoV-2^WK-521 (setting [14]), the EC50 is 330 nM and 380 nM and 420 nM.
Regarding `COc1ccc(F)c2[nH]c(C(=O)N[C@@H](CC(C)C)C(=O)N[C@@H](C[C@@H]3CCNC3=O)C(=O)c3nc4c(F)cccc4s3)cc12` [TKB198], the “SARS-CoV2 M^pro enzyme assay IC95” value at SARS-CoV-2 M^pro/3CL^pro (FRET, mean ± 1 S.D.) was 750 ± 270 nM. The IC50 is 23 ± 13 nM at SARS-CoV-2 M^pro/3CL^pro (setting [15]); 36 nM and 10.1 nM at SARS-CoV-2 M^pro/3CL^pro (source data, M^pro enzyme assay, listed as TKB0198, read-out: IC50, individual assays); 23 nM on SARS-CoV-2 M^pro/3CL^pro (setting [17]). The “IC95, Average” value against SARS-CoV-2 M^pro/3CL^pro (setting [16]) is reported as 0.7533. The “IC95, individual assays” value against SARS-CoV-2 M^pro/3CL^pro (source data, M^pro enzyme assay, listed as TKB0198) was 1.0700 and 0.6000 and 0.5900. Moreover, in data set [4], the Cmax stood at 85 ng/mL. For the same compound, the “Oral F” value in [4] (po) is on record as 1.98§ %. In addition, in the data set with SARS-CoV-2^WK-521, the “EC95, Average” value turned out to be 0.834. Besides, the “EC95, individual assays” value with SARS-CoV-2^WK-521 was 0.856 and 0.86 and 0.8 and 0.82. For the same compound, the “Improvement of EC50 and EC95 values relative to TKB125” value in the data set with SARS-CoV-2^WK-521 is on record as “about 10 fold”. In addition, in the data set on SARS-CoV-2^WK-521, the “SARS-CoV2 RNA VeroE6 cell-based assay EC95” value is 830 ± 30 nM. Further, the EC50 was 272 nM with SARS-CoV-2^WK-521 (read-out: EC50, Average); 130 nM and 300 nM and 400 nM and 260 nM in the data set with SARS-CoV-2^WK-521 (setting [14]); 270 ± 110 nM with SARS-CoV-2^WK-521 (setting [18]). Further, the T1/2 in data set [5] is recorded as 0.83 § h.
For the compound `O=C(NC(Cc1ccccc1)C(=O)NC(Cc1ccccc1)C(=O)CF)OCc1ccccc1` (stereo not drawn) [FF-FMK, reference compound] (Cbz-Phe-Phe-CH2F; configuration not given here), the “% inhibition against human Cathepsin” value on human cathepsin L (0.00106 µM) is 39.8315% and 40.7898% and 42.7898%; on human cathepsin L (0.0053 µM), 58.2277% and 58.5989% and 59.5989%; on human cathepsin L (0.0266 µM), 77.0946% and 80.3037% and 81.3037%; on human cathepsin L (0.6 µM) it was 98.8112% and 98.8499%; at human cathepsin L (3.3 µM), 99.7789% and 99.782%; on human cathepsin L (16.6 µM) it was 99.9553% and 99.0234% and 100.023%.
For `COc1cccc2[nH]c(C(=O)N[C@@H](CC(C)C)C(=O)N[C@@H](C[C@@H]3CCNC3=O)C(=O)c3nc4ccccc4s3)cc12` [Compound 5h, reference compound], in the data set with SARS-CoV-2^WK-521, the “EC95, Average” value worked out at 9.4675; the “EC95, individual assays” value was 9.47 and 9.68 and 9.72 and 9; the “SARS-CoV2 RNA VeroE6 cell-based assay EC95” value was found to be 9470 ± 330 nM. In the data set on SARS-CoV-2^WK-521 (setting [14]), the concentration for a half-maximal effect (EC50) was 2700 nM and 3200 nM and 2000 nM and 2500 nM. In addition, the EC50 with SARS-CoV-2^WK-521 (setting [18]) is 2600 ± 500 nM. For the same compound, the T1/2 in [5] is given as 0.27§ h.
On to `Cn1cnc(Cn2c(=O)[nH]/c(=N\c3cc4cn(C)nc4cc3Cl)n(Cc3cc(F)c(F)cc3F)c2=O)n1` [Ensitrelvir fumarate], for which the CC50 at 3 days in the data set “in vitro [1]” and in the data set “in vitro [3]” was greater than 100000 nM each time. Also, the EC50 in data set [2] (setting [9]) is 200 ± 30 nM; in data set [2] (setting [10]), 211 nM; in [2] (setting [11]) it was 204 nM; in data set [2] (setting [12]), 230 nM and 170 nM; with SARS-CoV-2^WK-521 (Severe acute respiratory syndrome coronavirus 2, Vero C1008, read-out: EC50, Average), 106 nM; in the data set with SARS-CoV-2^WK-521 (setting [13]) it was 110 ± 50 nM. Further, in the data set with SARS-CoV-2^WK-521 (setting [14]), the EC50 is 45 nM and 127 nM and 156 nM and 98 nM.
Consider `COc1ccc(F)c2[nH]c(C(=O)N[C@@H](CC(C)C)C(=O)N[C@@H](C[C@@H]3CCNC3=O)C(=O)c3nc4ccccc4s3)cc12` [TKB125], for which the “SARS-CoV2 M^pro enzyme assay IC95” value on SARS-CoV-2 M^pro/3CL^pro (FRET, mean ± 1 S.D.) is 1020 ± 400 nM. Also, the IC50 was 34 ± 6 nM on SARS-CoV-2 M^pro/3CL^pro (setting [15]); 34 nM at SARS-CoV-2 M^pro/3CL^pro (setting [17]); 28.2 nM and 39.6 nM and 34.1 nM at SARS-CoV-2 M^pro/3CL^pro (source data, M^pro enzyme assay, read-out: IC50, individual assays). Moreover, at SARS-CoV-2 M^pro/3CL^pro (setting [16]), the “IC95, Average” value was determined as 1.022. Moreover, the “IC95, individual assays” value against SARS-CoV-2 M^pro/3CL^pro (setting [16]) was 0.8844 and 1.476 and 0.7048. The “EC95, Average” value in the data set with SARS-CoV-2^WK-521 was found to be 8.3875. The “EC95, individual assays” value in the data set on SARS-CoV-2^WK-521 was 8.28 and 8.91 and 7.98 and 8.38. For the same compound, the “SARS-CoV2 RNA VeroE6 cell-based assay EC95” value with SARS-CoV-2^WK-521 is 8390 ± 390 nM. In addition, the EC50 in the data set on SARS-CoV-2^WK-521 (read-out: EC50, Average) is 1820 nM; in the data set with SARS-CoV-2^WK-521 (setting [14]), 1700 nM and 1510 nM and 3160 nM and 900 nM; with SARS-CoV-2^WK-521 (setting [18]) it was 1820 ± 960 nM. In addition, the T1/2 in data set [5] is recorded as 0.76 § h.
